According to patent US10597405B2, “Chemical compounds” (ASTRAZENECA AB, priority 2017, dated 2020):
pIC50: −log10 of the molar value.

Target: T1, KRasG12C (Homo sapiens, UniProt P01116, G12C)
T1 construct: biotin (biotinylated); made in house
Experiment: KRasG12C functional assay (HTRF nucleotide exchange / Raf RBD binding)
Format: biochemical
Settings: GDP loaded biotinylated KRasG12C, samples incubated 4 hrs, FRET readout; single experiment or average of two or more
Procedure: KRasG12C Functional Assay
All enzyme and substrate solutions were prepared in assay buffer containing 20 mM HEPES (pH 7.5), 5 mM MgCl2, 150 mM NaCl, and 0.01% Tween 20. […] In a separate mix 20 nM GST-Raf Ras binding domain (GST-Raf RBD, purified in house) and 4 μg/ml anti-GST XL665 antibody (Cisbio) was prepared in assay buffer containing 50 mM Potassium Fluoride and 0.05 mg/ml BSA and equilibrated for 4 hours before adding 0.6 μM Guanosine 5′-[γ-thio]triphosphate (GTPγS, Sigma) and 0.08 μM SOS (purified in house). 5 μl of the GST-RAF RBD mix was then dispensed into each well of the assay plate. […] This is detected simultaneously via the specific binding interaction between active GTPγS KRas^G12C with GST-Raf RBD which brings the europium and XL665 into close proximity enabling an increased FRET signal to be detected on a Pherastar (BMG) plate reader equipped with the HTRF filter module. […] IC50 values were calculated from normalised dose-response response FRET data curve fitted in Genedata screener (Basel, Switzerland).

T1 sequence (P01116 1-188 isoform P01116-2 G12C): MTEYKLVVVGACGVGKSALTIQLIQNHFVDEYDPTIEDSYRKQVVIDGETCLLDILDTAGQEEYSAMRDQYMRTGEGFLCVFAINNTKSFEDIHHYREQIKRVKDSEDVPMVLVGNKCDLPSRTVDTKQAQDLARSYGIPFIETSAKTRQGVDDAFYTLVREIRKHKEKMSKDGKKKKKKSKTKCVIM

Compared with C=CC(=O)N1CCN2c3c(cnc4c(OC)c(-c5c(O)cccc5F)c(Cl)cc34)OC[C@H]2C1 (single isomer, unassigned) [Compound 23], C=CC(=O)N1C[C@@H]2COc3cnc4c(C)c(-c5c(O)cccc5F)c(Cl)cc4c3N2C[C@H]1C (single isomer, unassigned) [Compound 41] is 0.44 log units higher in pIC50: 5.38 for the first, 5.82 for the second. The second is the more potent here.

First: C=CC(=O)N1CCN2c3c(cnc4c(F)c(-c5c(C)ccc6[nH]cnc56)c(Cl)cc34)N(C)C(=O)[C@H]2C1 (single isomer, unassigned) [Compound 25]
Second: C=CC(=O)N1CCN2c3c(cnc4c(F)c(-c5c(C)ccc6[nH]ncc56)c(Cl)cc34)N(C)C(=O)[C@H]2C1 (single isomer, unassigned) [Compound 50]
The pIC50 of the first is 2.53 log units higher: 7.55 for the first, 5.02 for the second.

Compared with C=CC(=O)N1CCN2c3c(cnc4c(F)c(-c5c(C)ccc6[nH]cnc56)c(Cl)cc34)N(C)C(=O)[C@H]2C1 (single isomer, unassigned) [Compound 26], C=CC(=O)N1C[C@@H]2C(=O)N(C)c3cnc4c(F)c(-c5c(C)ccc6[nH]cnc56)c(Cl)cc4c3N2C[C@H]1C (single isomer, unassigned) [Compound 27] is 1.29 log units lower in pIC50: 6.35 for the first, 5.06 for the second.

Compared with C=CC(=O)N1C[C@@H]2C(=O)N(C)c3cnc4c(F)c(-c5c(C)ccc6[nH]cnc56)c(Cl)cc4c3N2C[C@H]1C (single isomer, unassigned) [Compound 28], C=CC(=O)N1CCN2c3c(cnc4c(F)c(-c5c(C)cccc5O)c(Cl)cc34)N(C)C(=O)[C@H]2C1 (single isomer, unassigned) [Compound 53] is 4.10 log units lower in pIC50: 8.52 for the first, 4.42 for the second. The first is the more potent here.

Compared with C[C@@H]1CN2c3c(cnc4c(F)c(-c5c(O)cccc5F)c(Cl)cc34)N(C)C(=O)[C@H]2CN1C(=O)/C=C/CN(C)C (single isomer, unassigned) [Compound 29], C[C@@H]1CN2c3c(cnc4c(F)c(-c5c(O)cccc5F)c(Cl)cc34)OC[C@H]2CN1C(=O)/C=C/CN(C)C (single isomer, unassigned) [Compound 36] is 3.05 log units lower in pIC50: 7.60 for the first, 4.55 for the second. The first is the more potent here.

C=CC(=O)N1C[C@@H]2C(=O)Nc3cnc4c(F)c(-c5c(O)cccc5F)c(Cl)cc4c3N2C[C@H]1C (single isomer, unassigned) [Compound 30] and C=CC(=O)N1CCN2c3c(cnc4c(F)c(-c5c(O)cccc5F)c(Cl)cc34)NC(=O)[C@H]2C1 (single isomer, unassigned) [Compound 89] are within 0.2 log units of each other in pIC50: 5.34 for the first, 5.44 for the second.

First: C=CC(=O)N1C[C@@H]2C(=O)Nc3cnc4c(F)c(-c5c(O)cccc5F)c(Cl)cc4c3N2C[C@H]1C (single isomer, unassigned) [Compound 31]
Second: C=CC(=O)N1C[C@@H]2COc3cnc4c(F)c(-c5c(O)cccc5F)c(F)cc4c3N2C[C@H]1C (single isomer, unassigned) [Compound 63]
The pIC50 of the first is 2.68 log units higher: 8.40 for the first, 5.72 for the second. The first is the more potent here.

Compared with C=CC(=O)N1CCN2c3c(cnc4cc(-c5c(O)cccc5F)c(Cl)cc34)N(C)C(=O)C2(C)C1 (single isomer, unassigned) [Compound 32, 11-Chloro-10-(2-fluoro-6-hydroxyphenyl)-4a,6-dimethyl-3-(prop-2-enoyl)-2,3,4,4a-tetrahydro-1H-pyrazino[1′,2′:4,5]pyrazino[2,3-c]quinolin-5(6H)-one], C=CC(=O)N1CCN2c3c(cnc4c(F)c(-c5c(C)cccc5O)c(Cl)cc34)N(C)C(=O)[C@H]2C1 (single isomer, unassigned) [Compound 54] is 1.74 log units higher in pIC50: 5.66 for the first, 7.40 for the second.

Going from C=CC(=O)N1CCN2c3c(cnc4c(F)c(-c5c(F)cccc5CO)c(Cl)cc34)N(C)C(=O)[C@H]2C1 (single isomer, unassigned) [Compound 34] to C=CC(=O)N1CCN2c3c(cnc4c(F)c(-c5c(O)cccc5Cl)c(Cl)cc34)N(C)C(=O)[C@H]2C1 (single isomer, unassigned) [Compound 51], the pIC50 falls from 5.01 to less than 4.00.

Compared with C=CC(=O)N1CCN2c3c(cnc4c(F)c(-c5c(F)cccc5CO)c(Cl)cc34)N(C)C(=O)[C@H]2C1 (single isomer, unassigned) [Compound 35], C=CC(=O)N1CCN2c3c(cnc4c(F)c(-c5c(O)cccc5Cl)c(Cl)cc34)N(C)C(=O)[C@H]2C1 (single isomer, unassigned) [Compound 52] is 0.97 log units higher in pIC50: 6.88 for the first, 7.85 for the second. The second is the more potent here.

C[C@@H]1CN2c3c(cnc4c(F)c(-c5c(O)cccc5F)c(Cl)cc34)OC[C@H]2CN1C(=O)/C=C/CN(C)C (single isomer, unassigned) [Compound 37] and C=CC(=O)N1C[C@@H]2COc3cnc4c(F)c(-c5c(O)cccc5F)c(F)cc4c3N2C[C@H]1C (single isomer, unassigned) [Compound 64] are within 0.2 log units of each other in pIC50: 7.68 for the first, 7.70 for the second.

Compared with C=CC(=O)N1CCN2c3c(cnc4c(C)c(-c5c(O)cccc5F)c(C)cc34)N(C)C(=O)[C@H]2C1 (single isomer, unassigned) [Compound 43], C=CC(=O)N1CCN2c3c(cnc4c(C)c(-c5c(O)cccc5F)c(C)nc34)N(C)C(=O)[C@H]2C1 (single isomer, unassigned) [Compound 91] is higher in pIC50: less than 4.00 for the first, 4.45 for the second.

C=CC(=O)N1CCN2c3c(cnc4c(C)c(-c5c(O)cccc5F)c(C)cc34)N(C)C(=O)[C@H]2C1 (single isomer, unassigned) [Compound 44] and C=CC(=O)N1CCN2c3c(cnc4c(Cl)c(-c5c(O)cccc5F)c(F)cc34)N(C)C(=O)[C@H]2C1 (single isomer, unassigned) [Compound 79] are the same in pIC50: 6.85 for the first, 6.85 for the second.

First: C=CC(=O)N1CCN2c3c(cnc4cc(-c5c(F)ccc6cc[nH]c(=O)c56)c(Cl)cc34)OC[C@H]2C1 (single isomer, unassigned) [Compound 46]
Second: C=CC(=O)N1CCN2c3c(cnc4cc(-c5c(C)ccc6[nH]c(=O)[nH]c56)c(Cl)cc34)OC[C@H]2C1 (single isomer, unassigned) [Compound 72]
The pIC50 of the first is 0.88 log units higher: 5.96 for the first, 5.08 for the second. The first is the more potent here.

Going from C=CC(=O)N1CCN2c3c(cnc4c(F)c(-c5c(C)ccc6[nH]c(=O)oc56)c(Cl)cc34)OC[C@H]2C1 (single isomer, unassigned) [Compound 47] to C=CC(=O)N1CCN2c3c(cnc4c(F)c(-c5c(C)ccc6[nH]c(=O)n(C)c56)c(Cl)cc34)OC[C@H]2C1 (single isomer, unassigned) [Compound 84], the pIC50 falls from 7.51 to 5.62 (1.89 log units). The first is the more potent here.

First: C=CC(=O)N1CCN2c3c(cnc4c(F)c(-c5c(C)ccc6[nH]c(=O)oc56)c(Cl)cc34)OC[C@H]2C1 (single isomer, unassigned) [Compound 48]
Second: C=CC(=O)N1CCN2c3c(cnc4c(F)c(-c5c(C)ccc6[nH]c(=O)n(C)c56)c(Cl)cc34)OC[C@H]2C1 (single isomer, unassigned) [Compound 85]
The pIC50 of the first is 2.56 log units lower: 5.44 for the first, 8.00 for the second. The second is the more potent here.

C=CC(=O)N1CCN2c3c(cnc4c(F)c(-c5c(O)ccc6ccccc56)c(Cl)cc34)N(C)C(=O)[C@H]2C1 (single isomer, unassigned) [Compound 55] and C=CC(=O)N1CCN2c3c(cnc4c(F)c(-c5c(O)ccc(F)c5F)c(Cl)cc34)N(C)C(=O)[C@H]2C1 (single isomer, unassigned) [Compound 57] are within 0.2 log units of each other in pIC50: 5.23 for the first, 5.05 for the second.

Going from C=CC(=O)N1CCN2c3c(cnc4c(F)c(-c5c(O)ccc6ccccc56)c(Cl)cc34)N(C)C(=O)[C@H]2C1 (single isomer, unassigned) [Compound 56] to C=CC(=O)N1CCN2c3c(cnc4c(F)c(-c5c(O)ccc(F)c5F)c(Cl)cc34)N(C)C(=O)[C@H]2C1 (single isomer, unassigned) [Compound 58], the pIC50 rises from 7.25 to 7.70 (0.45 log units).

Going from C=CC(=O)N1CCN2c3c(cnc4c(F)c(-c5c(O)cccc5C(F)F)c(Cl)cc34)N(C)C(=O)[C@H]2C1 (single isomer, unassigned) [Compound 61] to C=CC(=O)N1CCN2c3c(cnc4c(Cl)c(-c5c(O)cccc5F)c(F)cc34)N(C)C(=O)[C@H]2C1 (single isomer, unassigned) [Compound 80], the pIC50 rises from 4.41 to 4.83 (0.42 log units). The second is the more potent here.

First: C=CC(=O)N1CCN2c3c(cnc4c(F)c(-c5c(O)cccc5C(F)F)c(Cl)cc34)N(C)C(=O)[C@H]2C1 (single isomer, unassigned) [Compound 62]
Second: C=CC(=O)N1CCN2c3c(cnc4c(F)c(-c5c(C)ccc6c5C(=O)NC6)c(Cl)cc34)OC[C@H]2C1 (single isomer, unassigned) [Compound 87]
The pIC50 of the first is 2.36 log units higher: 7.43 for the first, 5.07 for the second.

First: C=CC(=O)N1CCN2c3c(cnc4cc(-c5c(C)ccc6[nH]ncc56)c(Cl)cc34)N(CCN(C)C)C[C@H]2C1 (single isomer, unassigned) [Compound 73]
Second: C=CC(=O)N1CCN2c3c(cnc4cc(-c5c(C)ccc6[nH]ncc56)c(Cl)cc34)OC[C@H]2C1 (single isomer, unassigned) [Example 4]
The pIC50 of the first is 1.47 log units higher: 7.24 for the first, 5.77 for the second. The first is the more potent here.

Going from C=CC(=O)N1CCN2c3c(cnc4cc(-c5c(C)ccc6[nH]ncc56)c(Cl)cc34)N(CCN(C)C)C[C@H]2C1 (single isomer, unassigned) [Compound 74] to C=CC(=O)N1CCN2c3c(cnc4cc(-c5c(C)ccc6[nH]ncc56)c(Cl)cc34)OC[C@@H]2C1 (single isomer, unassigned) [Example 5], the pIC50 rises from 4.88 to 5.24 (0.36 log units). The second is the more potent here.

C#Cc1cc2c3c(cnc2cc1-c1c(C)ccc2[nH]ncc12)OC[C@H]1CN(C(=O)C=C)CCN31 (single isomer, unassigned) [Compound 76] and C=CC(=O)N1CCN2c3c(cnc4cc(-c5c(C)ccc6[nH]ncc56)c(Cl)cc34)OC[C@@H]2C1 (single isomer, unassigned) [Example 6] are within 0.2 log units of each other in pIC50: 6.03 for the first, 6.18 for the second.

C=CC(=O)N1CCN2c3c(cnc4c(F)c(-c5c(C)ccc6[nH]cnc56)c(Cl)cc34)OC[C@H]2C1 (single isomer, unassigned) [Compound 78] showed a pIC50 of 5.15.
